Tests used:
STHdh^Q109 cells [1] = test: Cell viability analysis (CCK-8 assay) in a cell model of HD; assay type: cell-based, mice; settings: 24 h, vs vehicle-treated cells
From the text: (§1) Conditionally immortalized wild-type STHdh^Q7 striatal neuronal progenitor cells expressing endogenous normal htt (referred to as wild-type striatal cells), and homozygous mutant STHdh^Q109 striatal neuronal progenitor cells from homozygous STHdh^Q109 knock-in mice expressing mutant htt with 109 glutamines (referred to as mutant striatal cells). STHdh^Q7 and STHdh^Q109 cells were generous gifts from Dr. Elena Cattaneo and Marta Valenza (Department of pharmacological sciences and center for stem cell research, University of Milano, Italy). These cells were maintained in an incubation chamber at 33° C. in Dulbecco's modified Eagle's medium supplemented with 10% fetal bovine serum.
STHdh^Q7 and STHdh^Q109 cells were treated with 5 or 10 μM Antcin H or vehicle (DMSO) for 24 h. STHdh^Q7 and STHdh^Q109 cells viability was quantified by the CCK-8 assay. The survival rate of the indicated cells was normalized to those survival rate of vehicle-treated STHdh^Q7 cells.
To investigate the neuroprotective potential of Antcin H in CNS disease, the present example used striatal cell line as an in vitro model of Huntington's disease. STHdh^Q109 cells carry the polyQ-expanded mouse gene Htt, which encodes 109 CAG repeats in the Htt gene. Compared with STHdh^Q109 cells, the control cell line (STHdh^Q7) only carry 7 copies of the CAG repeat. […]

STHdh^Q109 cells [2] = test: Intracellular ROS analysis (CM-H2DCFDA) in a cell model of HD; assay type: cell-based, mice; settings: 5 or 10 μM Antcin H, H2DCFDA staining
From the text: as §1
STHdh^Q7 and STHdh^Q109 cells were treated with 5 or 10 μM Antcin H or vehicle (DMSO) in the presence of 10 μM intracellular ROS indicator fluorescent probe CM-H2DCFDA (Molecular Probes, Inc., Eugene, Oregon, USA) for 1 h. Intracellular ROS (Reactive Oxygen Species) levels were measured by detecting the fluorescence intensity (Excitation/Emission: 488 nm/510 nm) using a fluorescence plate reader (Fluoroskan Ascent; Thermo Electron Corporation, Woburn, MA, USA). J774A.1 macrophages were treated with or without 1 μg/ml LPS for 5 h, followed by treated with or without 50 μM Antcin H for 0.5 h. […] The levels of intracellular ROS were measured by CM-H2DCFDA staining and detected by a fluorescence plate reader. […]

R6/2 mice [3] = test: Disease progression of R6/2 transgenic mouse model of HD (body weight, rotarod, survival, clasping); assay type: in vivo; settings: 10 mg/kg oral gavage daily
Method: R6/2 mice or wild-type mice were treated with Antcin H (10 mg/kg of body weight) or vehicle by oral gavage daily starting from the age of 7 weeks to the age of 12 weeks. Mice were tested on a Rotarod apparatus three times a week. Motor coordination was assessed using a rotarod apparatus assay (UGO BASILE, Comerio, Italy) at a constant speed (12 rpm) over a period of 2 min. The body weight and the lifespan were monitored weekly.
To investigate the therapeutic potential of Antcin H in the pathogenesis of Huntington's disease, R6/2 mice were used as an animal model of HD. R6/2 mice or wild-type mice were treated with Antcin H (10 mg/kg of body weight) or vehicle by oral gavage daily starting from the age of 7 weeks to the age of 12 weeks. […] WT-Vehicle: n=10; WT-AH: n=10; R6/2-vehicle: n=8; R6/2-AH: n=10. The data are presented as the mean±SEM. Label “a” in chart means p<0.05, between WT and R6/2 mice. Label “b” in chart means p<0.05 vs. R6/2-vehicle.

R6/2 mice [4] = test: Neuronal death in R6/2 mice brain (NeuN immunofluorescence staining, Western blotting); assay type: in vivo; settings: 10 mg/kg oral gavage daily
Method: (§2) FIG. 3A: The numbers of neurons (identified by the expression of NeuN; green color) and the level of mutant huntingtin (red color) in the striatum of the mice were analyzed by confocal microscope. Nuclei were stained with Hoechst (blue color).
(§3) The method was according to the previous report. In brief, brain sections were incubated overnight with anti-lba-I polyclonal antibody (1:500), anti-NeuN polyclonal antibody (1:500), anti-NLRP3 monoclonal antibody (1:200) or anti-EM48 monoclonal antibody (1:500) in PBS containing 5% normal goat serum at 4° C. and then incubated with the corresponding secondary antibody for 2 h at room temperature. Nuclei were stained with Hoechst 33258. Slides were mounted and analyzed with a laser confocal microscope.
The present example further investigates the effect of Antcin H in the neuronal death of R6/2 mice brains by immunofluorescence staining. […] R6/2 mice or WT mice were treated with AH (10 mg/kg of body weight) or vehicle by oral gavage daily starting from the age of 7 weeks to the age of 12 weeks. WT-Vehicle: n=6; WT-AH: n=6; R6/2-vehicle: n=6; R6/2-AH: n=6. The data are presented as the mean±SEM. Label “a” in chart means p<0.05, between WT and R6/2 mice. Label “b” in chart means p<0.05 vs. vehicle-treated R6/2 mice.

mutant huntingtin (mHtt) = test: mHtt aggregation in striatum of R6/2 mice (confocal microscope, filter retardation assay); assay type: in vivo; settings: 10 mg/kg oral gavage daily, age 7 to 12 weeks, confocal intensity and filter retardation assay
Method: as §2
Brain tissues will be suspended and homogenized in ice-cold RIPA buffer (50 mM Tris-HCl, 0.25% sodium deoxycholate, 1% Triton X-100, 150 mM NaCl, 1 mM phenylmethylsulfonyl fluoride, 1 mM Na3VO4, 0.5 mg/mL aprotinin, 0.1 mM leupeptin, and 4 mM pepstatin), mixed with 2% SDS, and applied to OE66 membrane filters ([…]; Whatman Schleicher and Schuell, Middlesex, UK) through a slot-blot manifold (Bio-Rad, Irvine, CA, USA). The blots will be blocked with 5% skim milk in PBS and incubated overnight with an anti-EM48 antibody (1:500; Millipore Bioscience Research Reagents, Temecula, CA, USA) at 4° C., followed by incubation with the corresponding secondary antibody for 1 h at RT. The immunoreactive bands will be detected by ECL (Pierce, Rockford, IL, USA) and recorded using Kodak XAR-5 film.
The method was according to the previous report. […] Slides were mounted and analyzed with a laser confocal microscope. […]

activated microglia = test: lba-1 immunofluorescence staining for activated microglia in striatum of R6/2 mice; assay type: in vivo; settings: 10 mg/kg oral gavage daily, age 7 to 12 weeks, vs vehicle-treated R6/2 mice
Method: (§4) FIG. 4A: The numbers of activated microglia in the striatum were identified by lba1 staining (green color), and the numbers of NLRP3 positive cells in the striatum were identified by NLRP3 staining (red color). Nuclei were stained with Hoechst (blue color).
as §3
(§5) HD commonly associated with inflammation in nervous system and activated microglia. […] FIG. 4 show Antcin H reduced NLRP3 expression in microglia of R6/2 mice. R6/2 mice or WT mice were treated with AH (10 mg/kg of body weight) or vehicle by oral gavage daily starting from the age of 7 weeks to the age of 12 weeks. WT-Vehicle: n=6; WT-AH: n=6; R6/2-vehicle: n=6; R6/2-AH: n=6. The data are presented as the mean±SEM. Label “a” in chart means p<0.05, between WT and R6/2 mice. Label “b” in chart means p<0.05 vs. vehicle-treated R6/2 mice.

NLRP3 = NLRP3 immunofluorescence staining in striatum of R6/2 mice; assay type: in vivo; settings: 10 mg/kg oral gavage daily, age 7 to 12 weeks, vs vehicle-treated R6/2 mice
Method: as §4, §3, §5

[5] = system: NLRP3 inflammasome in BV2 microglia; test: IL-1β ELISA in LPS-primed, ATP-activated BV2 microglia; assay type: cell-based; settings: 1 μg/ml LPS 5 h, 1 or 5 μM Antcin H 0.5 h, 1 mM ATP 24 h
Method: (§6) BV2 microglia were treated with or without 1 μg/ml LPS for 5 h, followed by treated with or without 1 or 5 μM Antcin H for 0.5 h. Cells were then activated by 1 mM ATP for 24 h. The IL-1β levels in the supernatants were measured by ELISA, and the levels of iNOS and NLRP3 in the cell lysates were measured by Western blotting. J774A.1 macrophages were treated with or without 1 μg/ml LPS for 5 h, followed by treated with or without Antcin H for 0.5 h. Cells were then activated by 5 mM ATP for 0.5 h. The IL-1β levels in the supernatants were measured by ELISA.
(§7) Microglia are macrophage-like immune cells of the central nervous system. […] (Subhramanyam et al., 2019). In addition, overexpressed IL-1β, the end-product of the NLRP3 inflammasome, plays important roles in the development of many diseases including neurodegenerative diseases (Siew et al., 2019). NLRP3 inflammasome composed of NLRP3, ASC and caspase-1 and controls the maturation and release of IL-1β. NLRP3 inflammasome can be activated by medical relevant stimuli such as ATP from damage tissues and amyloid-β of Alzheimer's disease (Guo et al., 2015). […] BV2 microglia were treated with or without 1 μg/ml LPS for 5 h, followed by treated with or without 1 or 5 μM Antcin H for 0.5 h. Cells were then activated by 1 mM ATP for 24 h. The data are presented as the mean±SEM from three independent experiments. […]

BV2 microglia = test: iNOS and NLRP3 Western blotting in LPS and ATP activated BV2 microglia; assay type: cell-based; settings: 1 μg/ml LPS 5 h, 1 or 5 μM Antcin H 0.5 h, 1 mM ATP 24 h
Method: as §6, §7

[6] = system: NLRP3 inflammasome in J774A.1 macrophages; test: IL-1β ELISA in LPS-primed, ATP-activated J774A.1 macrophages; assay type: cell-based; settings: 1 μg/ml LPS 5 h, Antcin H 0.5 h, 5 mM ATP 0.5 h
Method: (§8) FIG. 6A: J774A.1 macrophages were treated with or without 1 μg/ml LPS for 5 h, followed by treated with or without Antcin H for 0.5 h. Cells were then activated by 5 mM ATP for 0.5 h; FIG. 6B: J774A.1 macrophages were treated with or without 1 μg/ml LPS for 5 h, followed by treated with or without 50 μM Antcin H for 0.5 h. Cells were then activated by 5 mM ATP for 0-60 min.
as §6

J774A.1 macrophages = test: ATP-induced intracellular ROS (CM-H2DCFDA) in LPS-primed J774A.1 macrophages; assay type: cell-based; settings: 1 μg/ml LPS 5 h, 50 μM Antcin H 0.5 h, 5 mM ATP 0-60 min
Method: as §8
STHdh^Q7 and STHdh^Q109 cells were treated with 5 or 10 μM Antcin H or vehicle (DMSO) in the presence of 10 μM intracellular ROS indicator fluorescent probe CM-H2DCFDA (Molecular Probes, Inc., Eugene, Oregon, USA) for 1 h. Intracellular ROS (Reactive Oxygen Species) levels were measured by detecting the fluorescence intensity (Excitation/Emission: 488 nm/510 nm) using a fluorescence plate reader (Fluoroskan Ascent; Thermo Electron Corporation, Woburn, MA, USA). J774A.1 macrophages were treated with or without 1 μg/ml LPS for 5 h, followed by treated with or without 50 μM Antcin H for 0.5 h. […] The levels of intracellular ROS were measured by CM-H2DCFDA staining and detected by a fluorescence plate reader.
In addition, ROS is one of the crucial elements for NLRP3 inflammasome activation (Tschopp and Schroder, 2010). […] The levels of intracellular ROS were measured by CM-H2DCFDA staining and detected at an excitation wavelength of 488 nm and an emission wavelength of 510 nm on a […]. […]

[7] = age 7 to 12 weeks, vs vehicle-treated R6/2 mice

C=C(CCC(=C)[C@H]1CCC2C3=C(C(=O)[C@H](O)[C@@]21C)[C@@]1(C)CC[C@@H](O)[C@@H](C)C1CC3=O)C(C)C(=O)O (some centres unmarked) [Antcin H]
cell survival ratio (CCK-8 assay) (STHdh^Q109 cells [1]; 5 μM Antcin H): higher survival ratio then vehicle-treated cells
cell survival ratio (CCK-8 assay) (STHdh^Q109 cells [1]; 10 μM Antcin H): higher survival ratio then vehicle-treated cells
intracellular ROS levels (STHdh^Q109 cells [2]): significantly reduced the intracellular ROS levels
rotarod performance (latency to fall) (R6/2 mice [3]; age 7 to 12 weeks, 12 rpm, 2 min): increased latency to fall
body weight (R6/2 mice [3]; [7]): higher weekly weight gain
survival rate (R6/2 mice [3]; at 12 weeks of age): 100%
clasping score (R6/2 mice [3]; at 12 weeks of age, vs vehicle-treated R6/2 mice): lower clasping score
neuronal cells number in the brain (NeuN, confocal microscope) (R6/2 mice [4]; [7]): significant increased
NeuN protein expression in the brain (Western blotting) (R6/2 mice [4]; brain lysates at age of 12 weeks): increasing expression of NeuN protein
mutant huntingtin aggregation in the striatum (mutant huntingtin (mHtt)): reduced the mutant huntingtin aggregation
number of lba-1 positive cells in striatum (activated microglia): decreased
number of NLRP3 positive cells in striatum (NLRP3): significantly reduced the number of NLRP3 positive cells
ATP-induced IL-1β expression (IL-1β levels in the supernatants, ELISA) [5]: reduced ATP-induced IL-1β expression
expression level of NLRP3, Western blotting (BV2 microglia): reduced the expression levels
expression level of inducible nitric oxide synthase (iNOS), Western blotting (BV2 microglia): reduced the expression levels
ATP-induced IL-1β secretion (IL-1β levels in the supernatants, ELISA) [6]: inhibited by Antcin H (FIG. 6A) in a dose-dependent manner
ATP-induced ROS production (J774A.1 macrophages): significantly reduced ATP-induced ROS production
